From patent US8486996B2, “Aroylfuranes and aroylthiophenes” (Basilea Pharmaceutica AG, priority 2006, dated 2013)
Like-named read-outs stand apart in the source and are kept apart here.

Assays:
Format in all cases: cell-based
tumor cells [1] = experiment: Mitochondrial membrane potential, JC-1 (read-out 48 h); conditions: JC-1, 48 h
How it was run: (§1)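 Tumor cells were treated with test compounds (adherent cells after 24 h of attachment, suspension cells immediately), medium holding up to 5% DMSO. After 48 h, JC-1 (2-5 μg/ml in added medium) was applied for 30 min. Fluorescence microscopy (FITC/TRITC filters) scored the fraction of cells with dissipated mitochondrial membrane potential as categories A-D.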

[2] = as above; conditions: PBL, JC-1, 48 h
How it was run: as §1

tumor cells [3] = experiment: Hoechst 33342 nuclear staining (48 h read-out)
How it was run: (§2)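 Adherent cells pre-spread 24 h before dosing, suspension cells dosed at seeding; compounds at 0.001 μM-10 μM final, 48 h at culture conditions. Hoechst 33342 (2-5 μg/ml) added for 30 min, then fluorescence microscopy scoring of apoptotic nuclear fraction and apoptosis-specific morphology, reported as scores A-D.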

[4] = Hoechst 33342 nuclear staining (48 h read-out)
How it was run: as §2

tumor cells [5] = experiment: MTS proliferation assay (72 h read-out)
How it was run: (§3)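 Viability was read by MTS absorbance at 492 nm after 3 h with reagent. Before that, cells plated a day earlier at 1.5×10^3–10^4 per well had been incubated with test compound at final concentrations of 0.001–10 μM for 72 h; activity is given as category scores A–D.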

[6] = MTS proliferation assay (72 h read-out); conditions: MRC5 cells
How it was run: as §3

[7] = HeLa cells, read-out: Mitochondrial membrane potential (read-out 48 h) HeLa
[8] = Jily cells, read-out: Mitochondrial membrane potential (read-out 48 h) Jily
[9] = Jurkat cells, read-out: Mitochondrial membrane potential (read-out 48 h) Jurkat
[10] = MCF7 cells, read-out: Mitochondrial membrane potential (read-out 48 h) MCF7
[11] = HeLa cells, read-out: Hoechst 33342 nuclear staining EC50, HeLa
[12] = Jily cells, read-out: Hoechst 33342 nuclear staining EC50, Jily
[13] = Jurkat cells, read-out: Hoechst 33342 nuclear staining EC50, Jurkat
[14] = MRC5 cells, read-out: Hoechst 33342 nuclear staining EC50, MRC5
[15] = PBL, read-out: Hoechst 33342 nuclear staining EC50, PBL
[16] = HT1080 cells, read-out: MTS proliferation assay IC50, HT1080
[17] = HeLa cells, read-out: MTS proliferation assay IC50, HeLa
[18] = Jily cells, read-out: MTS proliferation assay IC50, Jily
[19] = Jurkat cells, read-out: MTS proliferation assay IC50, Jurkat

Row | SMILES | EC50 (tumor cells [1]; [7]) | EC50 (tumor cells [1]; [8]) | EC50 (tumor cells [1]; [9]) | EC50 (tumor cells [1]; [10]) | EC50 [2] | EC50 (tumor cells [3]; [11]) | EC50 (tumor cells [3]; [12]) | EC50 (tumor cells [3]; [13]) | EC50 [4, 14] | EC50 [4, 15] | IC50 (tumor cells [5]; [16]) | IC50 (tumor cells [5]; [17]) | IC50 (tumor cells [5]; [18]) | IC50 (tumor cells [5]; [19]) | IC50 [6]
1 | Nc1c(C(=O)c2cccnc2N2CCCNCC2)oc2ccc(Cl)cc12 [Example 84] | > 1000 nM | > 1000 nM | > 1000 nM | > 1000 nM | > 1000 nM | > 1000 nM | > 1000 nM | > 1000 nM | > 1000 nM | > 1000 nM | > 1000 nM | > 1000 nM | > 1000 nM | > 1000 nM | > 1000 nM
2 | CN1CCN(c2ncccc2C(=O)c2oc3ccc(Cl)cc3c2N)CC1 [Example 85] | > 1000 nM | 100 to 1000 nM | 100 to 1000 nM | > 1000 nM | > 1000 nM | > 1000 nM | 100 to 1000 nM | 100 to 1000 nM | > 1000 nM | > 1000 nM | > 1000 nM | > 1000 nM | 100 to 1000 nM | 100 to 1000 nM | > 1000 nM
3 | Nc1c(C(=O)c2cccnc2N2CCC(O)CC2)oc2ccc(Cl)cc12 [Example 86] | > 1000 nM | > 1000 nM | > 1000 nM | > 1000 nM | > 1000 nM | > 1000 nM | > 1000 nM | > 1000 nM | > 1000 nM | > 1000 nM | > 1000 nM | > 1000 nM | 100 to 1000 nM | 100 to 1000 nM | > 1000 nM
4 | COc1ccc2oc(C(=O)c3cccnc3N3CCCC(C)C3)cc2c1 (stereo not drawn) [Example 87] | 100 to 1000 nM | 100 to 1000 nM | 100 to 1000 nM | 100 to 1000 nM | > 1000 nM | 100 to 1000 nM | 100 to 1000 nM | 100 to 1000 nM | 100 to 1000 nM | > 1000 nM | 10 to 100 nM | 10 to 100 nM | 10 to 100 nM | < 10 nM | 10 to 100 nM
5 | COc1ccc2oc(C(=O)c3cccnc3N3CC=CCC3)cc2c1 [Example 88] | 10 to 100 nM | 10 to 100 nM | 10 to 100 nM | 10 to 100 nM | > 1000 nM | 100 to 1000 nM | 100 to 1000 nM | 100 to 1000 nM | 100 to 1000 nM | > 1000 nM | < 10 nM | 10 to 100 nM | < 10 nM | < 10 nM | < 10 nM
6 | COc1ccc2oc(C(=O)c3cccnc3N3CCCCC3C)cc2c1 (stereo not drawn) [Example 89] | 100 to 1000 nM | 100 to 1000 nM | 100 to 1000 nM | 100 to 1000 nM | > 1000 nM | 100 to 1000 nM | 100 to 1000 nM | 100 to 1000 nM | 100 to 1000 nM | > 1000 nM | 100 to 1000 nM | 100 to 1000 nM | 10 to 100 nM | 10 to 100 nM | 100 to 1000 nM
7 | COc1ccc2oc(C(=O)c3cccnc3-n3ccnc3)cc2c1 [Example 90] | > 1000 nM | > 1000 nM | > 1000 nM | > 1000 nM | > 1000 nM | > 1000 nM | > 1000 nM | > 1000 nM | > 1000 nM | > 1000 nM | > 1000 nM | > 1000 nM | > 1000 nM | > 1000 nM | > 1000 nM
8 | COc1ccc2oc(C(=O)c3cccnc3N3CCCCC3)cc2c1 [Example 91] | 10 to 100 nM | 10 to 100 nM | 10 to 100 nM | 10 to 100 nM | > 1000 nM | 100 to 1000 nM | 100 to 1000 nM | 100 to 1000 nM | 100 to 1000 nM | > 1000 nM | < 10 nM | 10 to 100 nM | < 10 nM | < 10 nM | < 10 nM
9 | COc1ccc2oc(C(=O)c3cccnc3N3CCCCC3)cc2c1 [Example 92] | 10 to 100 nM | 10 to 100 nM | 10 to 100 nM | 10 to 100 nM | > 1000 nM | > 1000 nM | > 1000 nM | > 1000 nM | > 1000 nM | > 1000 nM | > 1000 nM | > 1000 nM | > 1000 nM | > 1000 nM | > 1000 nM
10 | Nc1c(C(=O)c2cc(F)ccc2N2CCOCC2)oc2ccc(Cl)cc12 [Example 93] | 10 to 100 nM | 100 to 1000 nM | 10 to 100 nM | 100 to 1000 nM | > 1000 nM | 10 to 100 nM | 10 to 100 nM | 10 to 100 nM | 10 to 100 nM | > 1000 nM | 10 to 100 nM | 10 to 100 nM | 10 to 100 nM | 100 to 1000 nM | 10 to 100 nM
11 | COc1ccc2oc(C(=O)c3cc(F)ccc3N3CCN(C)CC3)cc2c1 [Example 94] | > 1000 nM | 100 to 1000 nM | 100 to 1000 nM | > 1000 nM | > 1000 nM | > 1000 nM | > 1000 nM | 100 to 1000 nM | > 1000 nM | > 1000 nM | 100 to 1000 nM | 100 to 1000 nM | 100 to 1000 nM | 100 to 1000 nM | 100 to 1000 nM
12 | COc1ccc2oc(C(=O)c3cc(F)ccc3N3CCCCC3C)cc2c1 (stereo not drawn) [Example 97] | > 1000 nM | > 1000 nM | > 1000 nM | > 1000 nM | > 1000 nM | > 1000 nM | > 1000 nM | > 1000 nM | > 1000 nM | > 1000 nM | 100 to 1000 nM | > 1000 nM | 100 to 1000 nM | 100 to 1000 nM | 100 to 1000 nM
13 | COc1ccc2oc(C(=O)c3cc(F)ccc3N3CCCC(C)C3)cc2c1 (stereo not drawn) [Example 99] | 100 to 1000 nM | 100 to 1000 nM | 100 to 1000 nM | 100 to 1000 nM | > 1000 nM | 100 to 1000 nM | 100 to 1000 nM | 100 to 1000 nM | > 1000 nM | > 1000 nM | 100 to 1000 nM | 100 to 1000 nM | 10 to 100 nM | 10 to 100 nM | 10 to 100 nM
